Patent US9895357B2, “Compositions, methods and kits for reducing lipid levels” (NuSirt Sciences, Inc., priority 2013, dated 2018)

Assays:
[1] = system: LDL receptor knockout (LDLRKO) mice; experiment: Example 7: plasma total cholesterol, cholesterol esters and triglycerides in LDLRKO mice on western diet; assay type: in vivo; settings: four weeks
Description: (§1) The mice were provided free access to an atherogenic western diet (WD) containing 0.21% cholesterol (by weight) and 40% calories from fat and water for 4 weeks prior to treatment. […] The treatments were administered for eight weeks continuously.
Blood samples of the mice in all groups were obtained from tails of the mice at following four and eight weeks of administration. The serum/plasma levels of triglyceride, total cholesterol and cholesterol esters were measured. Following treatment, food was removed for four hours and the animals were euthanized.
Blood was collected into EDTA-coated tubes to analyze plasma lipid and cholesterol profiles. Plasma total cholesterol (TC, Pointe Scientific, Canton, Mich.), free cholesterol (FC, Wako, Richmond, Va.) and triglyceride (TG, Wako, Richmond, Va.) concentrations were measured using enzymatic assays according to manufacturer's instructions. Cholesterol ester (CE) was calculated as the difference between TC and FC.

AMPK [2] = settings: 0.5 mM for leucine and 5 μM for HMB; previously shown; cited from earlier work
[3] = system: LDL receptor knockout (LDLRKO) mice; experiment: Example 7: atherosclerotic lesion area and Oil Red O positive area in LDLRKO mice; assay type: in vivo; settings: eight weeks
Description: as §1
To assess atherosclerosis, the circulatory system was perfused following euthanasia with phosphate-buffered saline (PBS) before removing the heart and aorta. The upper one-third of the heart was dissected and embedded in Optimal Cutting Temperature Compound (Sakura Tissue-Tek, Torrance, Calif.), frozen, and stored at −80° C. Blocks were serially cut at 8 μm intervals and stained with hematoxylin and 0.5% Oil Red O (Sigma-Aldrich) to evaluate aortic sinus atherosclerotic intimal area. Atherosclerotic lesion area and Oil Red O positive area were quantified using Image-Pro Plus software (Media Cybemetics, Bethesda, Md.). Whole aorta (from sinotubular junction to iliac bifurcate) was dissected and fixed in 10% formalin, and the adventitia was cleaned. Aortas were opened along the longitudinal axis and pinned onto black silicon elastomer (Rubber-Cal, Santa Ana, Calif.) for the quantification of atherosclerotic lesion area. The percentage of total aortic surface covered with atherosclerotic lesions was quantified by Image-Pro Plus software (Media Cybemetics, Bethesda, Md.) and used to determine the total lesion area.

[4] = system: LDL receptor knockout (LDLRKO) mice; experiment: Example 7: aortic macrophage infiltration (CD68 positive area) in LDLRKO mice; assay type: in vivo; settings: eight weeks
Description: as §1
To assess macrophage infiltration, Sections of aortic sinus were immuno-stained with rat monoclonal antibody against macrophage-specific CD68 (Clone FA11, 1:75, AbD Serotec, Raleigh, N.C.) followed by staining with alkaline phosphatase-conjugated mouse anti-rat (for CD68, 1:50) secondary antibodies (Jackson ImmunoResearch laboratories, West Grove, Pa.). Control slides contain no primary antibody. The CD68-positive areas were analyzed using Image-Pro Plus software (Media Cybemetics, Bethesda, Md.).

Sirt1 [5] = settings: 0.5 mM for leucine and 5 μM for HMB; previously shown; cited from earlier work
C. elegans = experiment: Lifespan in C. elegans; assay type: in vivo, Caenorhabditis elegans; settings: leucine 0.5 mM, nicotinic acid 10 nM; basal conditions
Description: Eggs were hatched on a starved plate overnight. […] To study lifespan, 50 young adult worms were placed on NGM agar plates seeded with E. coli strain OP-50 (=day 1 of study). All treatments were added with the indicated concentrations to E. coli the agar plates. […] The worms were maintained at 20° C. throughout the duration of the study. Worms were transferred to new plates daily to eliminate progeny. […] The study was continued until the last animal was dead. Data were analyzed via Kaplan-Meier survival curves using Prism 6 (GraphPad Software) and statistical significance was determined by the Log-rank (Mantel-Cox) test.

[6] = oral dosing of about 3,000 mg; cited from earlier work
[7] = system: Patients pre-diagnosed with hyperlipidemia; settings: NA alone 3000 mg = group (e); NA 50 mg + Leu 1135 mg; groups (a)-(d) as
Description: Patients that are pre-diagnosed with hyperlipidemia are admitted for the randomized and double blind study. […] The treatments are administered orally twice a day, for 60 days continuously.
Blood samples of the patients in all groups are obtained from at day 0, 30 and 60 after the administration. The serum/plasma levels of triglyceride, cholesterol, LDL and HDL are measured. Cutaneous vasodilation is measured by laser-Doppler flowmeter and the discomfort level described by the patients.

Sirt1 [8] = system: Sirt1
Description: C2C12 mouse myoblasts (American Type Culture Collection) were plated at a density of 8000 cells/cm^2 (10 cm^2 dish) and grown in Dulbecco's modified eagle's medium (DMEM) containing 10% fetal bovine serum (FBS), and antibiotics (growth medium) at 37° C. in 5% CO2. For differentiation of C2C12 cells, cells were grown to 100% confluence, transferred to differentiation medium (DMEM with 2% horse serum and 1% penicillin-streptomycin), and fed with fresh differentiation medium every day until myotubes were fully formed (3 days).
(§2) Total 35 μg of protein from the cell lysate was resolved on 10% Tris/HCL polyacrylamide gels (Criterion precast gel, Bio-Rad Laboratories, Hercules, Calif.), transferred to PVDF membranes, incubated in blocking buffer (3% BSA in TBS), incubated with primary antibody, washed and incubated with secondary horseradish peroxidase-conjugated antibody.

[9] = system: LDL receptor knockout (LDLRKO) mice; settings: NA alone 10 g/kg diet = group (e); NA 250 mg + Leu 24 g/kg diet; groups (a)-(d) as
Description: All chemicals are purchased from Sigma.
The serum/plasma levels of triglyceride, cholesterol, LDL and HDL are measured. Cutaneous vasodilation is measured by laser-Doppler flowmeter.

AMPK [10] = system: AMPK
Description: 3T3-L1 preadipocytes (American Type Culture Collection) were plated at a density of 8000 cells/cm2 (10 cm2 dish) and grown in Dulbecco's modified eagle's medium (DMEM) containing 10% fetal bovine serum (FBS), and antibiotics (growth medium) at 37° C. in 5% CO2. […] Preadipocytes were maintained in this differentiation medium for 3 days and subsequently cultured in growth medium. Cultures were re-fed every 2-3 days to allow >90% cells to reach fully differentiation before conducting chemical treatment.
as §2, with “Western blotting was performed with antibodies against AMPK and Phospho-AMPKα (Thr172) obtained from Cell Signaling (Danvers, Mass.). […] Total” for “Total”, “30” for “35”, “antibody (P-AMPK),” for “antibody,”

[11] = leucine 24 g/kg diet alone, or with nicotinic acid 50 or 250 mg/kg diet, compared with NA 1,000 mg/kg diet
[12] = leucine 24 g/kg diet alone, or with nicotinic acid 50 mg/kg diet, compared with NA 1,000 mg/kg diet

CC(C)C[C@H](N)C(=O)O [leucine]
effect on plasma cholesterol esters [1, 11]: no independent effect
effect on plasma total cholesterol [1, 11]: no independent effect
therapeutic effect on these variables when administered alone (AMPK [2]): no therapeutic effect
effect on lesion (plaque) area [3, 12]: exerted an independent effect on plaque area
effect on aortic macrophage infiltration [4, 12]: significant independent effect on reducing macrophage infiltration
therapeutic effect on these variables when administered alone (Sirt1 [5]): no therapeutic effect
effect on lifespan (C. elegans): no independent effect

NC(=O)c1ccc[n+]([C@@H]2O[C@H](CO)[C@@H](O)[C@H]2O)c1 [nicotinamide riboside]
circulating level of nicotinic acid or nicotinamide riboside [6]: about 10 μM

O=C(O)c1cccnc1 [nicotinic acid]
cutaneous vasodilation and patient complaints [7]: significant higher cutaneous vasodilation and more complaints from the patients
effect on Sirt1 levels (Sirt1 [8]; C2C12 myotubes, 24 hours, nicotinic acid 10 nM alone or with 0.5 mM leucine): did not have a significant effect
concentrations of nicotinic acid alone found to exert no effect (Sirt1 [8]; dose-response study, C2C12 cells): < 100 nM
cutaneous vasodilation [9]: significant higher cutaneous vasodilation
circulating level of nicotinic acid or nicotinamide riboside [6]: about 10 μM
decrease in plasma total cholesterol ([1]; nicotinic acid 1,000 mg/kg diet added to western diet, p<0.01): 20%
decrease in plasma cholesterol esters ([1]; nicotinic acid 1,000 mg/kg diet, CE calculated as TC minus FC, p<0.002): 28%
decrease in plasma triglycerides ([1]; nicotinic acid 1,000 mg/kg diet, p<0.01): 32%
AMPK activation (P-AMPK/AMPK) (AMPK [10]; differentiated 3T3-L1 adipocytes, 24 hours, nicotinic acid 10 nM, leucine 0.5 mM, resveratrol 200 nM): no significant effect
concentrations of nicotinic acid alone found to exert no effect (AMPK [10]; dose-response study, 3T3-L1 cells): < 100 nM
decrease in atherosclerotic lesion size ([3]; nicotinic acid 1,000 mg/kg diet, relative to western diet alone): ~50%
decrease in aortic macrophage infiltration ([4]; nicotinic acid 1,000 mg/kg diet, % CD68 positive area): ~50%
effect on lifespan (C. elegans): no independent effect
